This test concerns Oct-3/4 gene. Briefly: Oct-3/4 gene expression level by real time PCR (ES cell differentiation inhibition assay 2). The class given is cell-based, mouse. Particulars: D3ES cells, 7 days; for expression of Oct-3/4 gene in comparison with ES cells cultured in the medium without the differentiation inhibiting agent: GAPDH internal standard, FIG. 6; for effect of keeping the expression of the Oct-3/4 gene relative to ESGRO: compared with 1,000 units/mL of ESGRO. The procedure: For the D3ES cells prepared by the method described in (3) preparation of a mouse ES cell of Example 1, 8×10^4 cells were seeded in a 10 cm-diameter cell culture dish coated previously with a 0.1% aqueous gelatin solution to make 10 mL of the ES cell assay medium. 1 mL of the differentiation inhibiting agent A to F, which were dissolved in dimethylsulfoxide (DMSO) or culture medium or their mixture to make 40 μg/mL per each dish, or ESGRO, which was adjusted to make 10^4 unit/mL, was added, and culturing was carried out at 37° C. in 5% […] incubator for 7 days. To the culture medium was added DMSO to make the final concentration 0.1% or lower.
A total RNA was extracted from the ES cells cultured by the method described in (1) ES cell differentiation inhibition assay 2 as described above, by using ISOGEN (K.K. Nippon Gene, Japan made) by the attached method. First, the medium was removed from the dish after the culture, the cells were washed twice with 10 mL of PBS, and dissolved in 1 mL of ISOGENE. After leaving stand at room temperature for 5 minutes, the solution was collected in a 1.5 mL Eppendorf tube. 0.2 mL of chloroform (Wako Pure Chemical Industries made) was added, shaken for 15 seconds and, then, left stand at room temperature for 2 or 3 minutes. The solution was centrifuged at 4° C. at 10000 rpm for 10 minutes by using a micro centrifuge (TOMY SEIKO Corp. made). 400 μL of the supernatant was transferred to a fresh 1.5 mL Eppendorf tube, 500 μL of isopropanol (Wako Pure, Chemical Industries made) was added, and left stand at room temperature for 10 minutes, and, then, centrifuged at 4° C. at 10000 rpm for 10 minutes by using the micro centrifuge. After the supernatant was removed, 1 mL of a 70% aqueous ethanol solution was added followed by shaking and, then, centrifugation was carried out at 4° C. at 10000 rpm for about 5 minutes by using, the micro centrifuge. After the supernatant was removed, a precipitation was dried and dissolved in 30 μL of distilled water to obtain the total RNA solution.
2 μg of the thus obtained total RNA was used as a template to synthesize a cDNA according to the attached protocol by using Deoxyribonuclease I (Amplification Grade)(Invitrogen Corp. made), Oligo(dT) 12-18 primer (Invitrogen Corp. made, 18418-012) and Omniscript reverse transcriptase (QIAGEN Corp, made). Thus, a reaction solution was prepared by adding 1 μL of 10× DNaseI Reaction Buffer, 1 μL of 10× DNaseI (all were made by Invitrogen Corp.) and distilled water to 2 μg of total RNA to make 10 μL in total, and the mixture was incubated at room temperature for 10 minutes. 1 μL of 25 mM EDTA solution was added and heated at 65° C. for 10 minutes. The mixture was cooled to room temperature, and then, 2 μL of 10× Buffer RT, 2 μL of 5 mM dNTP Mix, 2 μL of Oligo(dT) 12-18 primer, 0.25 μL of RNaseOUT (Invitrogen Corp. made, 10777-019) and 1 μL of Omniscript Reverse Transcriptase were added, and RNase-free purified water was added to give the total volume of 20 μL, and the mixture was incubated at 37° C. for 60 minutes to obtain cDNA solution. A portion of the synthesized cDNA obtained in such the way was diluted 5 folds with distilled water, and 2 μL of the solution was used as the template to conduct PCR by using Light Cycler-Fast Start DNA Master SYBR Green I Kit (Roche Diagnostics Corp. made) according to the attached protocol. The expression levels of the Oct-3/4 gene and glyceraldehyde-3-phosphate dehydrogenase (GAPDH) gene as the internal standard were measured. For amplifying the Oct-3/4 gene, sense primer OCT3 up (SEQ ID No.: 1) and antisense primer Oct3 down (SEQ ID No.: 2) were used, and for amplifying the GAPDH gene, sense primer GAPDH up (SEQ ID No.: 3) and antisense primer GAPDH down (SEQ ID No.: 4) were used. The composition of the PCR reaction solution and the reaction condition will be each presented below.
(In qPCR the cycle at which signal appears reflects the starting amount.)

Molecules are shown by their SMILES.

The text below walks through data of US8883504B2, “Cell differentiation suppressing agent, method of culturing cells using the same, culture solution, and cultured cell line” (Asahi Kasei Kabushiki Kaisha, priority 2003, dated 2014).

With `CC(=O)c1ccc(/N=N/C(C(N)=O)=C2/NC(C)(C)Cc3ccccc32)cc1` [compound B, 2-(4-acetyl-phenylazo)-2-(3,3-dimethyl-3,4-dihydro-2H-isoquinoline-1-ylidene)-acetamide], the “expression of Oct-3/4 gene in comparison with ES cells cultured in the medium without the differentiation inhibiting agent” value is “significantly promoted” and the “effect of keeping the expression of the Oct-3/4 gene relative to ESGRO” value was “comparable with 1,000 units/mL of ESGRO”. As for `CC1(C)Cc2ccccc2C(=C(N=Nc2cccc(Cl)c2)C(N)=O)N1` [C, 2-(3-chloro-phenylazo)-2-(3,3-dimethyl-3,4-dihydro-2H-isoquinoline-1-ylidene)-acetamide], the “expression of Oct-3/4 gene in comparison with ES cells cultured in the medium without the differentiation inhibiting agent” value is “maintained the expression of the Oct-3/4 gene”. Same read-out and setting: the result for `CC1(C)Cc2ccccc2C(=C(N=Nc2cccc([N+](=O)[O-])c2)C(N)=O)N1` [E, 2-(3,3-dimethyl-3,4-dihydro-2H-isoquinoline-1-ylidene)-2-(3-nitro-phenylazo)-acetamide] reads “maintained the expression of the Oct-3/4 gene”. Take `COc1ccc(N=NC(C(N)=O)=C2NC(C)(C)Cc3ccccc32)cc1` [F, 2-(3,3-dimethyl-3,4-dihydro-2H-isoquinoline-1-ylidene)-2-(4-methoxy-phenylazo)-acetamide]: the “expression of Oct-3/4 gene in comparison with ES cells cultured in the medium without the differentiation inhibiting agent” value is reported as “significantly promoted” and the “effect of keeping the expression of the Oct-3/4 gene relative to ESGRO” value is given as “comparable with 1,000 units/mL of ESGRO”.
